Results taken from patent US9855268B2, “Triazolo[4,5-d]pyrimidine derivatives” (Merck Patent GmbH, priority 2013, dated 2018).

Legend:
GSK3α(h) = GSK3α(h) (Homo sapiens, UniProt P49840); assay: GSK3α radiometric kinase assay (33P-ATP, phospho GS2 peptide); format: biochemical; conditions: read-out: IC50 GSK3α (enzyme assay)
Procedure, shortened: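 Human GSK3α incubated with 20 μM phospho-GS2 peptide in 8 mM MOPS pH 7,0, 10 mM Mg-acetate and [γ-33P]ATP (concentration as required), started with MgATP. After 40 minutes at room temperature, stopped with phosphoric acid; 33P incorporation measured by filtermat spotting and scintillation counting.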

GCN2 [1] = biological target: T1, GCN2 (Homo sapiens, UniProt Q9P2K8); assay: Cellular assay of GCN2 activity (phospho-eIF2alpha immunocytochemistry after tryptophanol); format: cell-based; set-up: endogenous in cells; host or cells: U2OS; conditions: Human U2OS cells, 2 h compound, 600 μM tryptophanol 30 min
Procedure, shortened: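 Readout in human U2OS cells: compound pretreatment 2 h, then tryptophanol (600 μM final) for 30 min to trigger GCN2 signalling. Fixed, permeabilised cells quantified by immunocytochemistry for phosphorylation, normalised to DMSO controls as % effect; IC50 from concentration-response.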
Target sequence in this assay (Q9P2K8 whole entry): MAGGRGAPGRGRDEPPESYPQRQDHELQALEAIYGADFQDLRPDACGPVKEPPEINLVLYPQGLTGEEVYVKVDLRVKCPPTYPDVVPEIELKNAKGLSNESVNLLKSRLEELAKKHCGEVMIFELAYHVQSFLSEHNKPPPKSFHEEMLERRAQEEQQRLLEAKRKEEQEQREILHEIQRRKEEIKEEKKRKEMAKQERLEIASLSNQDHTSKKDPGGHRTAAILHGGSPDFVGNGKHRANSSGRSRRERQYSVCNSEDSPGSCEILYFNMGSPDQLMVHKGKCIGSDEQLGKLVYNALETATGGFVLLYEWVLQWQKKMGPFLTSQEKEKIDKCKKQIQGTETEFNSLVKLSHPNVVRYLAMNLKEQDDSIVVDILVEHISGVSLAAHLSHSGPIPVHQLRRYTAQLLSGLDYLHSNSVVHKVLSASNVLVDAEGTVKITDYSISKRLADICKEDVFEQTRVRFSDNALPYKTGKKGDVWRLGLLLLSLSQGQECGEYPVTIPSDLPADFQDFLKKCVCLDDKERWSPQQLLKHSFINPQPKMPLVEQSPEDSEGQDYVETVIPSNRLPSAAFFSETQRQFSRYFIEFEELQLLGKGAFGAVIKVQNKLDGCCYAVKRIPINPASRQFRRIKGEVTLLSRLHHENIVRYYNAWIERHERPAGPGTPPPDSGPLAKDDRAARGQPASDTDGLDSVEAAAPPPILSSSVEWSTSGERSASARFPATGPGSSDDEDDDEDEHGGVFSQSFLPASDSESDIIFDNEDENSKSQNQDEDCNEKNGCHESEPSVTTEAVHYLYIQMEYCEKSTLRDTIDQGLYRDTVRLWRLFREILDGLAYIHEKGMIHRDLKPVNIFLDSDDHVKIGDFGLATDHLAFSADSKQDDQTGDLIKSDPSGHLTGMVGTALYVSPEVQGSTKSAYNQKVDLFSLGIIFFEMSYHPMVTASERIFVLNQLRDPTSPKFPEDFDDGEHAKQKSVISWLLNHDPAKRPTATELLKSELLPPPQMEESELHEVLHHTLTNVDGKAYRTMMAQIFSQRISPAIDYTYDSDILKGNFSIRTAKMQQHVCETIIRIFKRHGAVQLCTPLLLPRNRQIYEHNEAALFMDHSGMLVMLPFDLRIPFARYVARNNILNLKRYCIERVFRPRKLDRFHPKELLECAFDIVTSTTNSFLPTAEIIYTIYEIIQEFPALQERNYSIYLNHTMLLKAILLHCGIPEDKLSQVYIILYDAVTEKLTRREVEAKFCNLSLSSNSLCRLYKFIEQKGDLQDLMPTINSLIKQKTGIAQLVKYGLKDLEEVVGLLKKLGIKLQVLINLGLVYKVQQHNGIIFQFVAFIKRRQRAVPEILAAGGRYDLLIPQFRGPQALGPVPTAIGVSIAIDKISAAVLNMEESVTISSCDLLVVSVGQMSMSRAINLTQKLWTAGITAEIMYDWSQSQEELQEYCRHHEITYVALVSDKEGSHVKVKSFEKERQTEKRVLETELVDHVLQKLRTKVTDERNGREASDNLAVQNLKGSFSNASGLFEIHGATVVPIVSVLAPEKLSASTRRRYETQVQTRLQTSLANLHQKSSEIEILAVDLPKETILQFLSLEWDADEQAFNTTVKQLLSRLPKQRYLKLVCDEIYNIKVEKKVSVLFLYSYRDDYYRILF

GSK3β(h) = GSK3β(h) (Homo sapiens, UniProt P49841); assay: GSK3β radiometric kinase assay (33P-ATP, phospho GS2 peptide); format: biochemical; conditions: read-out: IC50 GSK3β (enzyme assay)
Method: GSK3β(h) is incubated with 8 mM MOPS pH 7,0, 0,2 mM EDTA, 20 μM
[…](p)EDEEE (phosphor GS2 peptide), 10 mM Mg-acetate and [gamma-33P-ATP](specific activity approx. 500 cpm/Pmol, concentration as required). The reaction is initiated by the addition of the MgATP. After incubation for 40 minutes at the room temperature, the Reaction is stopped by the addition of 3% phosphoric acid solution. 10 μL of reaction is then spotted onto a P30 filtermat and washed three times for 5 minutes in 50 mM phosphoric acid and once in methanol prior to drying and scintillation counting.

GCN2 [2] = biological target: T1, GCN2; assay: GCN2 enzyme assay (TR-FRET Lanthascreen, GFP-eIF2alpha phosphorylation); format: biochemical; conditions: 10 μM ATP, 80 nM GFP-eIF2a, 30 nM GCN2
Procedure, shortened: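 Kinase reaction with 10 μM ATP and 80 nM GFP-labelled eIF2alpha substrate at room temperature, stopped with EDTA. Phospho-eIF2alpha detected by TR-FRET between antibody and GFP-substrate, excitation at 340 nm.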
Target sequence in this assay (Q9P2K8 whole entry, species assumed): as the sequence (Q9P2K8 whole entry) above

Sequence of GSK3β(h) (P49841 whole entry): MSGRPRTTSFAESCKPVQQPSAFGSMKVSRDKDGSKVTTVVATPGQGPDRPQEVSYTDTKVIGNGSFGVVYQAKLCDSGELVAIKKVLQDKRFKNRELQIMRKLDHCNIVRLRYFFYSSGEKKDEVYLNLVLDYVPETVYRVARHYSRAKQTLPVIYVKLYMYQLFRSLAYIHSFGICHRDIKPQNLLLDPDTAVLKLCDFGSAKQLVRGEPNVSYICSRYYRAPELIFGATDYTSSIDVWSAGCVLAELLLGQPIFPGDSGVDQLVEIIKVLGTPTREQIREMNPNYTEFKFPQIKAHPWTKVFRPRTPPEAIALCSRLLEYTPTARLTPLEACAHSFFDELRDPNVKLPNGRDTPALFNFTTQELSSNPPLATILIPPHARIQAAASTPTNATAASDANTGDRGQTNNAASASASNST
Sequence of GSK3α(h) (P49840 whole entry): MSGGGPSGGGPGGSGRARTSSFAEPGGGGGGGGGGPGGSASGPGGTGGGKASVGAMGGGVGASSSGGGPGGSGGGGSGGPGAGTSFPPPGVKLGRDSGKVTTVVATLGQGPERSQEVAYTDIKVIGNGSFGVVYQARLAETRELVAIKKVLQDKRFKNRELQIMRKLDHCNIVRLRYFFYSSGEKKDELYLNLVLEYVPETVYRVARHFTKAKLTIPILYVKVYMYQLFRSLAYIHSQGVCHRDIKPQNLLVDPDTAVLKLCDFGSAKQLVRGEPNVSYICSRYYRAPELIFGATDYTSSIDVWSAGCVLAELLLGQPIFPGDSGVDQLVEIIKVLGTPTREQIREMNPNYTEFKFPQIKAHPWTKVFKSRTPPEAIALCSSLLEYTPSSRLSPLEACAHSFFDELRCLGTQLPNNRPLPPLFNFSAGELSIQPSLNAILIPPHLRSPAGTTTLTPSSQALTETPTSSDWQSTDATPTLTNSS

| SMILES | IC50 (GSK3α(h)) [nM] | IC50 (GCN2 [1]) [µM] | IC50 (GSK3β(h)) [nM] | IC50 (GCN2 [2]) [nM] |
| --- | --- | --- | --- | --- |
| Cc1ccc2cc(-n3nnc4cnc(N[C@@H]5CCC[C@@H](C(N)=O)C5)nc43)ccc2n1 (relative stereo) [A192, (trans)-3-[3-(2-methyl-quinolin-6-yl)-3H-[1,2,3]triazolo[4,5-d]pyrimidin-5-ylamino]-cyclohexanecarboxylic acid amide] | < 1000 | 5 to 10 | < 1000 | < 1000 |
| CCOc1ccc(-n2nnc3cnc(N[C@@H]4CC[C@@H](O)C4)nc32)cc1 (relative stereo) [A207, (trans)-3-[3-(4-ethoxy-phenyl)-3H-[1,2,3]triazolo[4,5-d]pyrimidin-5-ylamino]-cyclopentanol] | < 1000 | 1 to 5 | < 1000 | < 1000 |
| CC(C)Oc1ccc(-n2nnc3cnc(N[C@@H]4CC[C@@H](O)C4)nc32)cc1 (relative stereo) [A210, (trans)-3-[3-(4-isopropoxy-phenyl)-3H-[1,2,3]triazolo[4,5-d]pyrimidin-5-ylamino]-cyclopentanol] | < 1000 | 5 to 10 | < 1000 | < 1000 |
| Cn1cc(-c2ccc(-n3nnc4cnc(N[C@@H]5CC[C@H](N)C5)nc43)cc2)cn1 [A118, (1S,3R)-N3-{3-[4-(1-methyl-1H-pyrazol-4-yl)-phenyl]-3H-[1,2,3]triazolo[4,5-d]pyrimidin-5-yl}-cyclopentane-1,3-diamine] | < 1000 | 1 to 5 | < 1000 | < 1000 |
| Cc1nc2cc(-n3nnc4cnc(N[C@@H]5CC[C@@H](C(N)=O)C5)nc43)ccc2n1C [A183, (1R,3R)-3-[3-(1,2-dimethyl-1H-benzimidazol-5-yl)-3H-[1,2,3]triazolo[4,5-d]-pyrimidin-5-ylamino]-cyclopentanecarboxylic acid amide] | < 1000 | – | < 1000 | < 1000 |
| NC(=O)[C@@H]1CC[C@@H](Nc2ncc3nnn(-c4ccc5ncccc5n4)c3n2)C1 [A194, (1R,3R)-3-(3-[1,5]naphthyridin-2-yl-3H-[1,2,3]triazolo[4,5-d]pyrimidin-5-ylamino)-cyclopentanecarboxylic acid amide] | < 1000 | – | < 1000 | < 1000 |
| N#CCCn1cc(-c2ccc(-n3nnc4cnc(N[C@@H]5CC[C@@H](C(N)=O)C5)nc43)cc2)cn1 [A217, (1R,3R)-3-(3-{4-[1-(2-cyano-ethyl)-1H-pyrazol-4-yl]-phenyl}-3H-[1,2,3]triazolo[4,5-d]pyrimidin-5-ylamino)-cyclopentanecarboxylic acid amide] | < 1000 | – | < 1000 | < 1000 |
| COCCn1cc(-c2ccc(-n3nnc4cnc(N[C@@H]5CC[C@@H](C(N)=O)C5)nc43)nc2)cn1 [A219, (1R,3R)-3-(3-{5-[1-(2-methoxy-ethyl)-1H-pyrazol-4-yl]-pyridin-2-yl}-3H-[1,2,3]triazolo[4,5-d]pyrimidin-5-ylamino)-cyclopentanecarboxylic acid amide] | < 1000 | – | < 1000 | 1000 to 5000 |
| COCCn1cc(-c2cccc(-n3nnc4cnc(N[C@@H]5CC[C@@H](C(N)=O)C5)nc43)c2)cn1 [A222, (1R,3R)-3-(3-{3-[1-(2-methoxy-ethyl)-1H-pyrazol-4-yl]-phenyl}-3H-[1,2,3]triazolo[4,5-d]pyrimidin-5-ylamino)-cyclopentanecarboxylic acid amide] | < 1000 | – | < 1000 | < 1000 |
| CCOCCn1cc(-c2ccc(-n3nnc4cnc(N[C@@H]5CC[C@@H](C(N)=O)C5)nc43)cn2)cn1 [A229, (1R,3R)-3-(3-{6-[1-(2-ethoxy-ethyl)-1H-pyrazol-4-yl]-pyridin-3-yl}-3H-[1,2,3]triazolo[4,5-d]pyrimidin-5-ylamino)-cyclopentanecarboxylic acid amide] | < 1000 | – | < 1000 | < 1000 |
| CC(C)(O)Cn1cc(-c2ccc(-n3nnc4cnc(N[C@@H]5CC[C@@H](C(N)=O)C5)nc43)cc2)cn1 [A233, (1R,3R)-3-(3-{4-[1-(2-hydroxy-2-methyl-propyl)-1H-pyrazol-4-yl]-phenyl}-3H-[1,2,3]triazolo[4,5-d]pyrimidin-5-ylamino)-cyclopentanecarboxylic acid amide] | < 1000 | – | < 1000 | < 1000 |
| NC(=O)[C@@H]1CC[C@@H](Nc2ncc3nnn(-c4ccc(-c5cnn(CCn6ncccc6=O)c5)cc4)c3n2)C1 [A237, (1R,3R)-3-[3-(4-{1-[2-(6-oxo-6H-pyridazin-1-yl)-ethyl]-1H-pyrazol-4-yl}-phenyl)-3H-[1,2,3]triazolo[4,5-d]pyrimidin-5-ylamino]-cyclopentanecarboxylic acid amide] | < 1000 | – | < 1000 | < 1000 |
| CS(=O)(=O)N1CC[C@@H](Nc2ncc3nnn(-c4ccc5ncccc5c4)c3n2)C1 [A269, ((R)-1-methanesulfonyl-pyrrolidin-3-yl)-(3-quinolin-6-yl-3H-[1,2,3]triazolo[4,5-d]pyrimidin-5-yl)-amine] | < 1000 | – | < 1000 | < 1000 |
| NC(=O)[C@@H]1CC[C@@H](Nc2ncc3nnn(-c4ccc(OCC5CCNCC5)cc4)c3n2)C1 [A279, (1R,3R)-3-{3-[4-(piperidin-4-ylmethoxy)-phenyl]-3H-[1,2,3]triazolo[4,5-d]pyrimidin-5-ylamino}-cyclopentanecarboxylic acid amide] | < 1000 | – | < 1000 | < 1000 |
| CCOc1ccc(-n2nnc3cnc(N[C@@H]4CC[C@@H](c5nnc(C)o5)C4)nc32)cc1 [A281, [3-(4-ethoxy-phenyl)-3H-[1,2,3]triazolo[4,5-d]pyrimidin-5-yl]-[(1R,3R)-3-(5-methyl-[1,3,4]oxadiazol-2-yl)-cyclopentyl]-amine] | < 1000 | – | < 1000 | < 1000 |
| CCOc1ccc(-n2nnc3cnc(N[C@@H]4CC[C@@H](c5nnc(N)o5)C4)nc32)cc1 [A283, [(1R,3R)-3-(5-amino-[1,3,4]oxadiazol-2-yl)-cyclopentyl]-[3-(4-ethoxy-phenyl)-3H-[1,2,3]triazolo[4,5-d]pyrimidin-5-yl]-amine] | < 1000 | – | 1000 to 5000 | < 1000 |
| COc1ccc(-n2nnc3cnc(N[C@@H]4CCN(C(N)=O)C4)nc32)cc1 [A285, (R)-3-[3-(4-Methoxy-phenyl)-3H-[1,2,3]triazolo[4,5-d]pyrimidin-5-ylamino]-pyrrolidine-1-carboxylic acid amide] | < 1000 | – | 1000 to 5000 | < 1000 |
| CCOc1ccc(-n2nnc3cnc(N[C@@H]4CC[C@@H](C(=O)NS(C)(=O)=O)C4)nc32)cc1 [A286, N-{(1R,3R)-3-[3-(4-ethoxy-phenyl)-3H-[1,2,3]triazolo[4,5-d]-pyrimidin-5-ylamino]-cyclopentanecarbonyl}-methanesulfonamide] | < 1000 | – | < 1000 | < 1000 |
| CC(C)(O)c1ccc(-n2nnc3cnc(N[C@@H]4CC[C@@H](C(N)=O)C4)nc32)cc1 [A289, (1R,3R)-3-{3-[4-(1-hydroxy-1-methyl-ethyl)-phenyl]-3H-[1,2,3]triazolo[4,5-d]pyrimidin-5-ylamino}-cyclopentanecarboxylic acid amide] | < 1000 | – | < 1000 | < 1000 |
